# Source: article PMC3907359, “Investigation of Acetylcholine Receptor Diversity in a Nematode Parasite Leads to Characterization of Tribendimidine- and Derquantel-Sensitive nAChRs” (PLoS Pathogens, 2014)
# Columns and labels:
# Format in all cases: cell-based
# [1] = target: T1, Ode(29-63-8-38), Lev-nAChR (Oesophagostomum dentatum, UniProt E5KIX9+L7MMZ7+V5J2B2+V5J336); assay: two-electrode voltage clamp, Xenopus oocytes, agonist dose-response
# T1 construct: full-length cDNAs (UNC-29 497 aa, UNC-63 507 aa, ACR-8 538 aa, UNC-38 507 aa), pTB-207, cRNA 1:1:1:1 in Xenopus laevis oocytes; heteropentamer, stoichiometry undetermined; with H. contortus chaperones RIC-3, UNC-50, UNC-74
# T1 sequence (V5J336 21-507, one chain of several): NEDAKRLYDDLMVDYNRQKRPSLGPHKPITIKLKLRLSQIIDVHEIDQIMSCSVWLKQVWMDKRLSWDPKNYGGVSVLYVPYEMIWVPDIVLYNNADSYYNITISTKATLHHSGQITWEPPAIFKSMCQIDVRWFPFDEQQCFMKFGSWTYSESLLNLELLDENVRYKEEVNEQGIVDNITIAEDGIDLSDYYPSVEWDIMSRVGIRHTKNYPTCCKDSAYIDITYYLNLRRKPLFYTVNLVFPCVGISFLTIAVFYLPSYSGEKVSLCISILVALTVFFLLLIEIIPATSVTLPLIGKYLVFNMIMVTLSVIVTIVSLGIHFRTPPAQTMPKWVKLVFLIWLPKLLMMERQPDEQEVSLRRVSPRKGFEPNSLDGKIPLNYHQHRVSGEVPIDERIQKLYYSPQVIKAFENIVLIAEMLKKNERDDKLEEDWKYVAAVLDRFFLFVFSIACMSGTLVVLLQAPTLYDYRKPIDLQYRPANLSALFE
# Excerpt: two-electrode voltage clamp, Xenopus oocytes, agonist dose-response on Ode(29-63-8-38), Lev-nAChR
# Ode(29-63-8), ACh-nAChR [2] = target: T2, Ode(29-63-8), ACh-nAChR (Oesophagostomum dentatum, UniProt E5KIX9+L7MMZ7+V5J2B2); assay: as above
# T2 construct: full-length cDNAs (UNC-29 497 aa, UNC-63 507 aa, ACR-8 538 aa), pTB-207, cRNA 1:1:1 in Xenopus laevis oocytes; heteropentamer, stoichiometry undetermined; with H. contortus chaperones RIC-3, UNC-50, UNC-74
# T2 sequence (V5J2B2 21-497): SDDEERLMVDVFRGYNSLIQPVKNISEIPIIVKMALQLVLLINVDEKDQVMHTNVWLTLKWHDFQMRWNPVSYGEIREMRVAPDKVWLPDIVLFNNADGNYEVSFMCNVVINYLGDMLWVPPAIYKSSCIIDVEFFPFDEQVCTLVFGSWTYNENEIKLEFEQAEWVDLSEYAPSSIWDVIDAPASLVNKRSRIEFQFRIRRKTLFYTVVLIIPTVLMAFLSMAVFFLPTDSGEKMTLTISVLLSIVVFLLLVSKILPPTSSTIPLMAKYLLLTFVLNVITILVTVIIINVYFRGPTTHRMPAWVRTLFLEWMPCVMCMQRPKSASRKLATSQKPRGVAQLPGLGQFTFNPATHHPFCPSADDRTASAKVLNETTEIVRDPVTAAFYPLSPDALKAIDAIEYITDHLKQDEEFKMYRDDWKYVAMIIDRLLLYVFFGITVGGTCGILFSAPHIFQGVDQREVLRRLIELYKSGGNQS
# T2 sequence (E5KIX9 22-507): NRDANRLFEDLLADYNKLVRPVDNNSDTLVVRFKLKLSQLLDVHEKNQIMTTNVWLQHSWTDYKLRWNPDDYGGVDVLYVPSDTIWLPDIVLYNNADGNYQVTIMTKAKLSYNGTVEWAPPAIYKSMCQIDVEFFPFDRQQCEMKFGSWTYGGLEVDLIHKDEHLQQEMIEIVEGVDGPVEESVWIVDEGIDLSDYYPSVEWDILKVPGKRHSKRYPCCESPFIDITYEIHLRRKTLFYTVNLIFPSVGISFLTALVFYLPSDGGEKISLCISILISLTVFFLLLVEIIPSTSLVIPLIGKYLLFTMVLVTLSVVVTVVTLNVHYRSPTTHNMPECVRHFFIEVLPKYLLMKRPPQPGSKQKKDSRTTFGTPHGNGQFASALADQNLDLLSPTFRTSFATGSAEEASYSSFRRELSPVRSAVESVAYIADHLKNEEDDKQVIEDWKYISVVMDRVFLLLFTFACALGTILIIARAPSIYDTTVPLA
# T2 sequence (L7MMZ7 21-538): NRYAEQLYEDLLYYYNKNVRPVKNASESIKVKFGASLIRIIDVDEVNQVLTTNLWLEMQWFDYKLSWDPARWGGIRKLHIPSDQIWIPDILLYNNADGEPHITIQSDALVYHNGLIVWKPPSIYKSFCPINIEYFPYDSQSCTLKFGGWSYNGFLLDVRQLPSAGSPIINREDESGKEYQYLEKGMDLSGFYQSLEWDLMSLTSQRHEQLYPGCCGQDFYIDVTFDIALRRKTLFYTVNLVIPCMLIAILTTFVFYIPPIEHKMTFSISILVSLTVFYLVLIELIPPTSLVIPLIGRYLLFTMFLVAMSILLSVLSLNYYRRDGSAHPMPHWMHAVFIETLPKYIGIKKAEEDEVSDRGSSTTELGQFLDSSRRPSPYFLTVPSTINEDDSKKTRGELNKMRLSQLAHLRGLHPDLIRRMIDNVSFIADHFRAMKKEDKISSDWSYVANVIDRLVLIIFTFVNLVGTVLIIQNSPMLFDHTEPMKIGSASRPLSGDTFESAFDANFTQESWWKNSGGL
# Excerpt: two-electrode voltage clamp, Xenopus oocytes, agonist dose-response on Ode(29-63-8), ACh-nAChR
# Ode(29-63-8), ACh-nAChR [3] = target: T2, Ode(29-63-8), ACh-nAChR; assay: voltage clamp, oocytes; single concentration current; conditions: agonist, 30 µM
Structure (SMILES),EC50 [1],"EC50 (Ode(29-63-8), ACh-nAChR [2])","voltage clamp, oocytes; single concentration current (Ode(29-63-8), ACh-nAChR [3])"
CC(=O)OCC[N+](C)(C)C [acetylcholine],4.2 ± 0.2 µM,3.5 ± 0.2 µM,
C[N+](C)(CCOc1ccccc1)Cc1ccccc1 [bephenium],,,"responses to all the agonists we tested, including bephenium and thenium"
